Data taken from patent publication US20220289698A1, “INHIBITORS OF HUMAN ATGL” (Karl-Franzens-Universität Graz, priority 2019, published 2022).
Read-outs that look alike come from different tables or passages of the source.

How the values were obtained:
Type in all cases: biochemical
[1] = molecular target: T1, rat ATGL (Rattus norvegicus, UniProt P0C548); assay: Rat ATGL inhibition, Expi lysates + CGI-58
T1 construct: made in house; host or cells: Expi cells (lysate)
T1 sequence (P0C548 1-478): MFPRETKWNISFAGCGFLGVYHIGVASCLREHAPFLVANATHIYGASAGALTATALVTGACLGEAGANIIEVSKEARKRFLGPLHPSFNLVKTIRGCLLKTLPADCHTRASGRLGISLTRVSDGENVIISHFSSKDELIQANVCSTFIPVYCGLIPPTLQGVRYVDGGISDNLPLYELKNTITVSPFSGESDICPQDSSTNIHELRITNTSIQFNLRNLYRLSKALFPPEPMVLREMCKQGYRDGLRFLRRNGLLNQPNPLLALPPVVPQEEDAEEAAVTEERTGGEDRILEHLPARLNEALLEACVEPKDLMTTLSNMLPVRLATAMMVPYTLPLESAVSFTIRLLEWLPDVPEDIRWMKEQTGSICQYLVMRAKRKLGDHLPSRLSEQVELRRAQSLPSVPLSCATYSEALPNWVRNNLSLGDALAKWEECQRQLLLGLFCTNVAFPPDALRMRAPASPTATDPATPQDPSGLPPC
Procedure: (§1) Lysates from Expi cells overexpressing ATGL from rat (Rattus norvegicus) were incubated with recombinant purified ATGL co-activator CGI-58 and ATGL inhibitors at 50 μM. Subsequently, substrate containing radiolabeled triolein was added and liberated FA were extracted and quantified by liquid scintillation. Inhibitors were dissolved in DMSO which was used as control. Samples were measured in triplicates.

[2] = test system: pig vWAT; assay: Pig vWAT inhibition, visceral adipose tissue lysates + CGI-58
Procedure: as §1, with “visceral adipose tissue of pigs (Sus scrofa)” for “Expi cells overexpressing ATGL from rat (Rattus norvegicus)”

[3] = test system: goat ATGL; assay: Goat ATGL inhibition, Expi lysates + CGI-58
Procedure: as §1, with “goat (Capra hircus)” for “rat (Rattus norvegicus)”

[4] = test system: rhesus monkey ATGL; assay: Rhesus monkey ATGL inhibition, Expi lysates + CGI-58
Procedure: as §1, with “rhesus monkeys (Macaca mulatta)” for “rat (Rattus norvegicus)”

[5] = molecular target: T2, human ATGL (Homo sapiens, UniProt Q96AD5); assay: TG hydrolase activity, Expi cell lysates expressing human ATGL + CGI-58, radiolabelled triolein
T2 construct: made in house; host or cells: Expi cells (lysate, not purified)
T2 sequence (Q96AD5 1-504): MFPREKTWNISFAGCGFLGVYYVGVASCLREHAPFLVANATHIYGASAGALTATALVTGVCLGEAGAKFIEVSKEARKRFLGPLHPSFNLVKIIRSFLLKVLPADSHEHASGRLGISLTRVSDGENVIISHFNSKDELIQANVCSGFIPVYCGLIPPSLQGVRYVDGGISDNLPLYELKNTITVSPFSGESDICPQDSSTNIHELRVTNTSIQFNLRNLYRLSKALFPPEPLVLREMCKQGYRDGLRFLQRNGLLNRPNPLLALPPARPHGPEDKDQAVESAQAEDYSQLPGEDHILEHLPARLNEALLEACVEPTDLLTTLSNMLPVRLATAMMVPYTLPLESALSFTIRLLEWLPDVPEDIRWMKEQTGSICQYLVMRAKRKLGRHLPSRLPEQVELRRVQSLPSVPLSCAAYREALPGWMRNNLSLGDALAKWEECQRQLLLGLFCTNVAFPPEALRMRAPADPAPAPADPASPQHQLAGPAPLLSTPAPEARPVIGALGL
Outline: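 Lysates of Expi cells expressing ATGL, supplemented with purified CGI-58 and inhibitor in DMSO, incubated 1 h at 37 °C with emulsified radiolabelled triolein (330 μM) in potassium phosphate pH 7.0 with 5% FA-free BSA. Released FA counted by liquid scintillation after phase extraction; IC50 versus DMSO control, duplicates.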

[6] = molecular target: T3, mMGL (Mus musculus, UniProt O35678); assay: mMGL off-target inhibition; details: read-out: mMGL off-target inhibition [% inhibition at 100 μM]
T3 construct: made in house; host or cells: E. coli (lysate)
T3 sequence (O35678 1-303): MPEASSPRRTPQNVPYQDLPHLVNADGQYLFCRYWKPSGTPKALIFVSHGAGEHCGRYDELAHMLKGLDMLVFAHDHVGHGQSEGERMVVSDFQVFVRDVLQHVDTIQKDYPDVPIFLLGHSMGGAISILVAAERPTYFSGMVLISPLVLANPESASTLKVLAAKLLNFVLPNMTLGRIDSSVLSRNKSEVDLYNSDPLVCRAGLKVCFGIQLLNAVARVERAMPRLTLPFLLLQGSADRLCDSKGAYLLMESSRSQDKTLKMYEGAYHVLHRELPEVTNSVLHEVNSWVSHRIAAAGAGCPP
Procedure: Lysates from E. coli expressing mMGL were treated with 100 μM Inhibitors and incubated with 1 mM rac-OG substrate for 10 min. Enzyme activity was measured using the Free Glycerol Reagent. Samples measured in triplicates.

[7] = Example 237, read-out: Inhibition of human ATGL − IC50
[8] = Example 238, read-out: Inhibition of human ATGL IC50

SMILES | inhibition at 50 µM [1] | pig vWAT inhibition [% inhibition at 50 μM [2] | goat ATGL inhibition [% inhibition at 50 μM [3] | rhesus monkey ATGL inhibition [% inhibition at 50 μM] [4] | IC50 [5, 7] | inhibition at 100 µM [6] | IC50 [5, 8]
CCOc1ccc(-c2nc(C(=O)OCc3cccs3)cs2)cc1 [Example 152, Thiophen-2-ylmethyl 2-(4-ethoxyphenyl)thiazole-4-carboxylate] | 10% | 0% | 0% | 10% | 10 µM | – | –
CCOc1ccc(-c2nc(C(=O)OCc3ccsc3)cs2)cc1 [Example 215, Thiophen-3-ylmethyl 2-(4-ethoxyphenyl)thiazole-4-carboxylate] | 50% | 15% | 50% | 70% | – | 0% | < 3 µM
CCCCOC(=O)c1csc(-c2ccc(OCC)cc2)n1 [Example 212, Butyl 2-(4-ethoxyphenyl)thiazole-4-carboxylate] | 40% | 5% | 20% | 70% | – | 0% | 7 µM
CCOc1ccc(-c2nc(C(=O)OCc3ccc(Br)s3)cs2)cc1 [Example 224, (5-Bromothiophen-2-yl)methyl 2-(4-ethoxyphenyl)thiazole-4-carboxylate] | 40% | 15% | 40% | 70% | – | 70% | 12 µM
CCOc1ccc(-c2cccc(C(=O)OCc3ccco3)n2)cc1 [Example 190, Furan-2-ylmethyl 6-(4-ethoxyphenyl)picolinate] | 40% | 0% | 25% | 70% | – | 0% | 15 µM
CC#CCOC(=O)c1csc(-c2ccc(OCC)cc2)n1 [Example 209, But-2-yn-1-yl 2-(4-ethoxyphenyl)thiazole-4-carboxylate] | 40% | 0% | 25% | 70% | – | 0% | 10 µM
CCOc1ccc(-c2nc(C(=O)OCc3ccoc3)cs2)cc1 [Example 216, Furan-3-ylmethyl 2-(4-ethoxyphenyl)thiazole-4-carboxylate] | 50% | 15% | 50% | 70% | – | 0% | < 3 µM
C#C[C@@H](C)OC(=O)c1csc(-c2ccc(OCC)cc2)n1 [Example 211, (R)-But-3-yn-2-yl 2-(4-ethoxyphenyl)thiazole-4-carboxylate] | 50% | 5% | 30% | 100% | – | 0% | < 3 µM
CCOc1ccc(-c2nc(C(=O)OCc3ccc(Cl)s3)cs2)cc1 [Example 223, (5-Chlorothiophen-2-yl)methyl 2-(4-ethoxyphenyl)thiazole-4-carboxylate] | 40% | 15% | 40% | 65% | – | 0% | 12 µM
COc1cc(C(=O)OC(C)C)nc(-c2ccc(OC(C)C)cc2)c1 [Example 201, Isopropyl 6-(4-isopropoxyphenyl)-4-methoxypicolinate] | 0% | 0% | 0% | 95% | – | 0% | < 3 µM
C#C[C@H](C)OC(=O)c1csc(-c2ccc(OCC)cc2)n1 [Example 210, (S)-But-3-yn-2-yl 2-(4-ethoxyphenyl)thiazole-4-carboxylate] | 15% | 5% | 20% | 90% | – | 0% | < 3 µM
CCOc1ccc(-c2cc(OC)cc(C(=O)OC(C)C)n2)cc1 [Example 35] | – | – | – | – | 1 µM | 0% | –
CCOc1ccc(-c2cccc(C(=O)OCc3cccs3)n2)cc1 [Example 189, Thiophen-2-ylmethyl 6-(4-ethoxyphenyl)picolinate] | 10% | 15% | 50% | 70% | – | 0% | 25 µM
